# What was measured:
# Human hair samples = experiment: Evidence of bonding to hair (SEM); conditions: 0.2% solution in ethanol/water=80/20, 8 h, rinsed; comparison with DHHB
# Experimental: Human hair samples are stirred with a 0.2% ethanolic active-compound solution of DHAB or DHHB (ethanol/water=80/20) for 8 h, subsequently rinsed with ethanol/water=80/20 and sent for SEM measurement (SEM=scanning electron microscope).
# chicken skin = experiment: Evidence of bonding to chicken skin; conditions: 2% in dimethylisosorbide, 2.66 μl/cm^2, exposure 16 hours, isopropanol extraction, photometric at 354 nm
# Experimental: A) DHAB is dissolved to the extent of 2% in dimethylisosorbide. The solution is applied to chicken skin at an application rate of 2.66 μl/cm^2. After an exposure time of 16 hours, the samples are extracted with isopropanol in an ultrasound bath. The extracts are measured photometrically at 354 nm and compared with a 100% value (=application solution without use). The difference in the recovery compared with the 100% value corresponds here to the proportion of active compound bonded to the skin. For DHAB, a bound proportion of 76% is found, while the non-bonding comparative substance DHHB has, as expected, a low value of only 3%.
# gelatine plates = experiment: Evidence of bonding (skin model), gelatine plates; conditions: 24 hrs at 87% atmospheric humidity, eluted with iPrOH in ultrasound bath
# Experimental: 4% solutions of a mixture of two isomers of 2-(3,4-dihydroxy-5-oxo-2,5-di-hydrofuran-2-yl)-2-hydroxyethyl 2-(4-diethylamino-2-hydroxybenzoyl)benzo-ate, prepared in accordance with Example 1 or 2, abbreviated to DHAB below, in various solvent systems are prepared. 40 µl of each of these are applied to 2.5×7.5 cm gelatine plates and stored at 87% atmospheric humidity for 24 hrs. The plates are then eluted with 50 ml of iPrOH in an ultrasound bath for 5 min. The bonding to the gelatine is carried out by comparison with a corresponding standard solution: […]
# pig skin = experiment: Evidence of bonding to pig skin; conditions: pig skin 24 h
# Experimental: • 2% solution of DHAB in Arlasolve DMI sample (A) and Pelemol BIP sample (B) • formulation containing 1% of DHAB sample (C) [=54-07-5-A, from Example V] • 2% solution of DHHB in Arlasolve DMI sample (D) and isopropyl myristate sample (E) formulations containing 0.84% of DHHB sample (F) [=54-07-5-B from Example V] and 0.84% of DHHB+0.37% of vitamin C sample (G) [=54-07-5-C from Example V]. • pig skin is cut to 2.5×7.5 cm and placed on Plexiglas specimen slides. Procedure:
# 50 µl of each of samples (A) to (G) are dripped onto the specimen slides with pig skin, spread using a plastic spatula, and the specimen slides are stored in a desiccator [87% atmospheric humidity through sat. KCl solution] at room temperature for 24 h. The specimen slides are then rinsed with 50 ml of isopropanol into volumetric flasks, treated in an ultrasound bath for 5 min, clear-filtered via syringe filters (cloudiness due to detached skin constituents and measured by UV spectrometer (400-250 nm; UVmax˜355 nm) (residue 1 to 7). The 100% comparative value used are 50 ml isopropanol solutions of in each case 50 µl of samples (A) to (G), which are likewise measured by UV spectrometer.
# prolyl-4-hydroxylase = conditions: cited from earlier work
smiles,measurement,setting,value
"CCN(CC)c1ccc(C(=O)c2ccccc2C(=O)OC[C@@H](O)[C@H]2OC(=O)C(O)=C2O)c(O)c1 [DHAB, (R)-2-((R)-3,4-dihydroxy-5-oxo-2,5-dihydrofuran-2-yl)-2-hydroxyethyl 2-(4-diethylamino-2-hydroxybenzoyl)benzoate]",active-compound adduction onto the hair cuticles (SEM picture),Human hair samples,clearly increasingly evident
same,bound proportion (proportion of active compound bonded to the skin),chicken skin,76%
same,Non-extractable content and therefore bonded to the skin,gelatine plates; 4% solution in EG/water 94/6 on gelatine plate,97.0%
same,Non-extractable content and therefore bonded to the skin,gelatine plates; 4% solution in i-PrOH on gelatine plate,12.5%
same,Bonding (non-extractable residue),pig skin; 1% in W/O 54-07-5-A,91%
same,Bonding (non-extractable residue),pig skin; 2% in Arlasolve DMI,97%
same,Bonding (non-extractable residue),pig skin; 2% in Pelemol BIP,89%
"CCCCCCOC(=O)c1ccccc1C(=O)c1ccc(N(CC)CC)cc1O [DHHB, hexyl 2-(4-diethylamino-2-hydroxybenzoyl)benzoate]",bound proportion (proportion of active compound bonded to the skin),chicken skin,3%
same,Bonding (non-extractable residue),pig skin; 0.84% in W/O 54-07-5-B,5%
same,Bonding (non-extractable residue),pig skin; 2% in Arlasolve DMI,0%
same,Bonding (non-extractable residue),pig skin; 2% in isopropyl myristate,2%
CC(=O)Oc1ccccc1C(=O)OC[C@H](OC(=O)c1ccccc1OC(C)=O)[C@H]1OC(=O)C(O)=C1O [O^5O^6-bis(2-acetoxybenzoyl) L-ascorbate],supporting the activity of the enzyme prolyl-4-hydroxylase,prolyl-4-hydroxylase,capable of supporting the activity
same,affinity to the enzyme,prolyl-4-hydroxylase; compared with the monosubstituted compound,lower affinity
CC(=O)Oc1ccccc1C(=O)OC[C@H](O)[C@H]1OC(=O)C(O)=C1O [O^6-(2-acetoxybenzoyl) L-ascorbate],supporting the activity of the enzyme prolyl-4-hydroxylase,prolyl-4-hydroxylase,capable of supporting the activity
